{
  "source": "BindingDB's records for patent US20240083857",
  "about": "(Bayer Pharma Aktiengesellschaft, 2024)",
  "data": [
    {"target": "Epidermal growth factor receptor (Homo sapiens, UniProt P00533)", "sequence (P00533 whole entry)": "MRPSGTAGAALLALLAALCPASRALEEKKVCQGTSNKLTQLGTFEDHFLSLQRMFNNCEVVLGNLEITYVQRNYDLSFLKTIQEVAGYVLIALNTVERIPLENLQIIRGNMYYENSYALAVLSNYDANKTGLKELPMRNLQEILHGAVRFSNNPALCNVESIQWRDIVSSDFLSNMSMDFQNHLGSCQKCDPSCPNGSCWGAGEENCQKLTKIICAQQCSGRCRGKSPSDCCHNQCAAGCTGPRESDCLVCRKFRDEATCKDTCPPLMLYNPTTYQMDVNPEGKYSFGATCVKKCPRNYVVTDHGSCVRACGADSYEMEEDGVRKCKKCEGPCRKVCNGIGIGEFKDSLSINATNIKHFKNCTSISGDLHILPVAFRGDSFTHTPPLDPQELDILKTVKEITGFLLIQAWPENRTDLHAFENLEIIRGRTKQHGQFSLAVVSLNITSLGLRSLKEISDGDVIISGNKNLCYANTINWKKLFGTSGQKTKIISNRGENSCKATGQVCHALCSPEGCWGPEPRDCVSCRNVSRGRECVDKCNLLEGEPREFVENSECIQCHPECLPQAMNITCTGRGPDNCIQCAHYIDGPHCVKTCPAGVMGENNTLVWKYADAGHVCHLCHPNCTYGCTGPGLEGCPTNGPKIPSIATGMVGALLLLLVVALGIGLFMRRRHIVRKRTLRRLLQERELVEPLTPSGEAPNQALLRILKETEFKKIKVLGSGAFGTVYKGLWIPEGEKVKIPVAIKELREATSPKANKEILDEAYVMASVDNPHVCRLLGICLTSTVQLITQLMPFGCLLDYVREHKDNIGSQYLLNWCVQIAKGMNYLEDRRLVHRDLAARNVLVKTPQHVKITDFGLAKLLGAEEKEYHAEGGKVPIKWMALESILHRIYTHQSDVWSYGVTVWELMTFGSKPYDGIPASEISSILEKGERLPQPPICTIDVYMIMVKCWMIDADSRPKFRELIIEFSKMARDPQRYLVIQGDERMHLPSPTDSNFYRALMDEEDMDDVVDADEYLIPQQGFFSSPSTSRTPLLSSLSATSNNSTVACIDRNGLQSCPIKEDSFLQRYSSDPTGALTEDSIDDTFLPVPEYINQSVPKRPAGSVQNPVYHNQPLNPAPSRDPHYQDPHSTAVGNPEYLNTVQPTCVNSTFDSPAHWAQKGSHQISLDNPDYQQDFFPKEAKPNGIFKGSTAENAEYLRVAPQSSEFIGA", "assay": "EGFR Kinase Assay", "description": "For the assay 50 nL of a 100 fold concentrated solution of the test compound in DMSO was pipetted into a black low volume 384 well microtiter plate (Greiner Bio-One, Frickenhausen, Germany), 2 μL of a solution of EGFR in aqueous assay buffer [50 mM Hepes/HCl pH 7.0, 1 mM MgCl2, 5 mM MnCl2, 0.5 mM activated sodium ortho-vanadate, 0.005% (v/v) Tween-20]were added and the mixture was incubated for 15 min at 22° C. to allow pre-binding of the test compounds to the enzyme before the start of the kinase reaction. […] The concentration of EGFR was adjusted depending of the activity of the enzyme lot and was chosen appropriate to have the assay in the linear range, typical concentration were about 3 U/ml. The reaction was stopped by the addition of 5 μl of a solution of HTRF detection reagents (0.1 μM streptavidine-XL665 [Cis Biointernational] and 1 nM PT66-Tb-Cryptate, an terbium-cryptate labelled anti-phospho-tyrosine antibody from Cis Biointernational [instead of the PT66-Tb-cryptate PT66-Eu-Chelate from Perkin Elmer can also be used]) in an aqueous EDTA-solution (80 mM EDTA, 0.2% (w/v) bovine serum albumin in 50 mM HEPES pH 7.5).The resulting mixture was incubated 1 h at 22° C. to allow the binding of the biotinylated phosphorylated peptide to the streptavidine-XL665 and the PT66-Eu-Chelate. Subsequently the amount of phosphorylated substrate was evaluated by measurement of the resonance energy transfer from the PT66-Tb-Cryptate to the streptavidine-XL665.", "units": {"IC50": "µM"}, "values": [
      {"smiles": "COc1cc2nc(C)nc(N[C@H](C)c3cc4cccc(OC)c4o3)c2cc1OC", "note": "[US20240083857, Example 33]", "IC50": "> 20"},
      {"smiles": "Cc1nc(N[C@H](C)c2ccc(F)cc2)c2cc(Br)ccc2n1", "note": "[US20240083857, Example 31]", "IC50": "> 20"},
      {"smiles": "COc1cc2nc(C)nc(NC(C)c3ccc(-c4ccccc4CNCC(=O)Nc4ccccc4)s3)c2cc1OC", "note": "(stereo unspecified) [US20240083857, Example 289]", "IC50": "> 20"},
      {"smiles": "COCCNC(=O)CNCc1ccccc1-c1ccc(C(C)Nc2nc(C)nc3cc(OC)c(OC)cc23)s1", "note": "(stereo unspecified) [US20240083857, Example 283]", "IC50": "> 20"},
      {"smiles": "COc1cc2nc(C)nc(N[C@H](C)c3ccc(C#N)cc3)c2cc1OC", "note": "[US20240083857, Example 189]", "IC50": "> 20"},
      {"smiles": "CNC(=O)CNCc1ccccc1-c1ccc(C(C)Nc2nc(C)nc3cc(OC)c(OC)cc23)s1", "note": "(stereo unspecified) [US20240083857, Example 282]", "IC50": "> 20"},
      {"smiles": "COc1cc2nc(C)nc(NC(C)c3ccc(-c4ccccc4CNCC(=O)NCc4ccccc4)s3)c2cc1OC", "note": "(stereo unspecified) [US20240083857, Example 284]", "IC50": "> 20"},
      {"smiles": "Cc1nc(N[C@H](C)c2ccccc2)c2cc(Br)ccc2n1", "note": "[US20240083857, Example 29]", "IC50": "> 20"},
      {"smiles": "Cc1nc(NC(C)c2ccc(-c3ccccc3CN(C)C)s2)c2cc(N3CCCC3)ccc2n1", "note": "(stereo unspecified) [US20240083857, Example 415]", "IC50": "> 20"},
      {"smiles": "COc1cc2nc(C)nc(NC(C)c3ccc(-c4ccccc4CNCC(=O)N(C)C)s3)c2cc1OC", "note": "(stereo unspecified) [US20240083857, Example 280]", "IC50": "> 20"},
      {"smiles": "COc1cc2nc(C)nc(NC(C)c3ccc(-c4ccccc4CNCC(N)=O)s3)c2cc1OC", "note": "(stereo unspecified) [US20240083857, Example 279]", "IC50": "> 20"}
    ]}
  ]
}
